Key:
Assay type in all cases: cell-based, human
[1] = tested on: VWF expression level in hPSC-EC; experiment: VWF expression level in hPSC-EC by immunofluorescence
Method: (§1) Cells were fixed with 4% paraformaldehyde in 1×PBS for 15 minutes and subsequently washed three times with 1×PBS. For immunofluorescence, fixed samples were blocked with 5% donkey serum plus 0.1% Triton X-100 in 1×PBS, incubated overnight in 3% bovine serum albumin (BSA) (Sigma Aldrich)+1×PBS with primary antibodies, washed, incubated with secondary antibodies, washed and imaged. Primary antibodies included antibodies for VWF (Agilent Technologies; A008202), β-Actin (Cell Signaling Technology; 4970); DAPI (Cayman Chemical Company; 14285), Angiopoietin 2 (R&D Systems; AF623), CD31 (BD Biosciences; 555444), CD144 (BD Biosciences; 555661), and Notch1 (Cell Signaling Technology; 3608S). Fluorescence labeled antibodies included anti-rabbit IgG secondary antibody Alexa Fluor 488 (Thermo Fisher Scientific; A32731), anti-mouse IgG secondary antibody Alexa Fluor 555 (Thermo Fisher Scientific; A21422), and FITC anti-VWF antibody (Abcam; ab8822). To compare different experimental conditions, images were collected at identical microscopy setup using wide field or confocal fluorescence microscope. […]
hPSC-EC were treated with blood plasma or compounds to test their effects on VWF expression level in cells. […] Due to the high fluorescence background in 40% and 80% plasma treated cells, we only used less than 40% plasma to treat cells for immunofluorescence imaging. […]

[2] = tested on: VWF expression level in hPSC-EC; experiment: VWF and CD144 protein in hPSC-EC by immunoblot
Method: Whole cells lysate was extracted using 1× RIPA lysis and extraction buffer (Thermo Fisher Scientific) supplemented with 1× protease inhibitor cocktail (Sigma Aldrich) and 1 μL Benzonase nuclease (Sigma Aldrich) per sample. Each sample was supplied with 100 mM DTT (Sigma Aldrich) and 1× Laemmli sample buffer (Bio-Rad) and heated at 95° C. for 5 minutes. The primary antibodies above were added to samples and followed by anti-rabbit or anti-mouse IgG secondary antibody conjugated with HRP (Thermo Fisher Scientific; 31460 or 31430). Immunoblots were imaged in the presence of Pierce ECL Western Blotting substrate (Thermo Fisher Scientific) and quantified using Fiji software.
Ten compounds were added separately to hPSC culture medium on day 6 of the cell differentiation and maintained in the media thereafter. The untreated cell culture medium was EGM with additional 20 ng/ml VEGF, 20 ng/ml FGF, and 1 μM Chir99021. Based on untreated cell culture medium, we tested the following additional concentrations of compounds: VEGF (30, 70, 120 ng/ml, Peprotech 100-20), FGF (30, 70, 120 ng/ml, PeproTech 100-18B), human transforming growth factor β1 (TGFβ1, 1, 3, 10 ng/ml, R&D Systems 240-B), lipopolysaccharide (LPS, 1, 3, 10 ng/ml, Santa Cruz sc-3535), human interferon gamma (IFN, 1, 3, 10 ng/ml, Peprotech 300-02), human noggin (1, 3, 10 ng/ml, Peprotech, 120-10C), Chir99021 (1, 3, 10 µM, Reprocell 04-0004-10), Smoothened agonist (SAG, 1, 3, 10 μM, Cayman Chemical 11914), BMP4 (1, 3, 10, 50 ng/ml, R&D Systems 314-BP), or DAPT (1, 3, 10 µM, Tocris 2634). Concentrations of these compounds that were likely to be safe and efficacious were used based on the literature and previous experience. To treat HUVEC with DAPT (Tocris 2634), 0/10/30 μM DAPT was added to the cell culture medium EGM on day 2 after cell passaging and maintained in the media thereafter. The cell culture medium with corresponding compound was changed every two days until cell fixation or cell lysis experiment on day 10-14 for hSPC-EC or day 7-9 for HUVEC.

VWF level in HUVEC = VWF level in HUVEC treated with DAPT (immunofluorescence and immunoblot)
Method: Cells were fixed with 4% paraformaldehyde in 1×PBS for 15 minutes and subsequently washed three times with 1×PBS. For immunofluorescence, fixed samples were blocked with 5% donkey serum plus 0.1% Triton X-100 in 1×PBS, incubated overnight in 3% bovine serum albumin (BSA) (Sigma Aldrich)+1×PBS with primary antibodies, washed, incubated with secondary antibodies, washed and imaged. Primary antibodies included antibodies for VWF (Agilent Technologies; A008202), β-Actin (Cell Signaling Technology; 4970); DAPI (Cayman Chemical Company; 14285), Angiopoietin 2 (R&D Systems; AF623), CD31 (BD Biosciences; 555444), CD144 (BD Biosciences; 555661), and Notch1 (Cell Signaling Technology; 3608S). Fluorescence labeled antibodies included anti-rabbit IgG secondary antibody Alexa Fluor 488 (Thermo Fisher Scientific; A32731), anti-mouse IgG secondary antibody Alexa Fluor 555 (Thermo Fisher Scientific; A21422), and FITC anti-VWF antibody (Abcam; ab8822). To compare different experimental conditions, images were collected at identical microscopy setup using wide field or confocal fluorescence microscope. Image analysis was performed using Fiji software.
Whole cells lysate was extracted using 1× RIPA lysis and extraction buffer (Thermo Fisher Scientific) supplemented with 1× protease inhibitor cocktail (Sigma Aldrich) and 1 μL Benzonase nuclease (Sigma Aldrich) per sample. […]

[3] = tested on: VWF at the hPSC-EC surface; experiment: VWF string formation assay under flow after PMA stimulation; conditions: 3 μM DAPT from day 6; 100 ng/mL PMA 20 min, flow 2.5 dyn/cm^2 5 min
Method: The hPSC-EC from day 5 of cell differentiation were seeded in a flow chamber (ibidi GmbH, μ-slide VI 0.4, 17×3.8×0.4 mm) precoated with 2.5 mg/mL collagen (Corning, Rate Tail Collagen Type I). Cells were fed by EGM endothelial cell growth medium+20 ng/ml recombinant human VEGF165+20 ng/mL recombinant human FGF-basic+1 μM Chir-99021 until day 12 of cell differentiation. The flow chamber was washed by 100 μl EBM endothelial cell growth basal medium (Lonza) twice. Cells were stimulated in EBM medium with 100 ng/mL PMA at stasis at 37° C. and 5% CO2 for 20 minutes and then followed by flow (2.5 dyn/cm^2 wall shear stress) using a syringe pump for 5 minutes. After flow stopped, the flow chamber was blocked by 6% BSA (Sigma Aldrich) in EBM medium for 10 minutes. […] Cells were washed by EBM medium for three times and imaged under Olympus wide field fluorescence microscope. […]
VWF forms strings on HUVEC surface upon stimulation by agonists such as phorbol 12-myristate 13-acetate (PMA) (FIG. 10A). […] The effect of enhancing VWF level on VWF string formation was then evaluated. hPSC-EC were transferred into a microfluidic channel on day 5 of differentiation and treated with 3 μM DAPT from day 6 onwards. […] VWF attached to the EC surface was detected live by FITC-labeled anti-VWF antibody, which was introduced under flow. […]

hPSC-EC = hPSC-EC maturation: cell size and CD144 junction morphology; conditions: 0 or 3 μM DAPT
Method: as §1
hPSC-EC were treated with blood plasma or compounds to test their effects on VWF expression level in cells. […] Due to the high fluorescence background in 40% and 80% plasma treated cells, we only used less than 40% plasma to treat cells for immunofluorescence imaging.

## C[C@H](NC(=O)Cc1cc(F)cc(F)c1)C(=O)N[C@H](C(=O)OC(C)(C)C)c1ccccc1 [DAPT]
[1]; added day 6 of differentiation, DAPT 1 μM
  Levels of VWF by immunofluorescence in screen of ten compounds: substantially increased levels of VWF
[1]; final concentration of 1 μM DAPT
  Increase of VWF fluorescence intensity vs untreated control, repeated trials: approximately two-fold
[2]; DAPT-treated hPSC-EC
  CD144 marker for EC: does not affect CD144
  VWF protein by immunoblot: confirmed the increase in VWF protein
[2]; hPSC-EC, DAPT 1, 3, 10 μM
  DAPT final concentration at which VWF protein peaks (immunoblot): ~3 µM
VWF level in HUVEC; 0/10/30 μM DAPT
  VWF level in HUVEC by immunofluorescence and immunoblot: enhanced VWF level with increased DAPT concentrations
VWF level in HUVEC; HUVEC, 10 μM DAPT
  VWF increase compared to untreated controls: ~1.7 times
[3]
  VWF attached to the EC surface of control hPSC-EC: numerous foci of VWF at the cell surface
  VWF string formation: formed strings attached to the EC surface
hPSC-EC
  Changes in hPSC-EC size or junctional morphology: did not induce the changes
